Measured values published in patent publication US11241477B2, “Oxytocin compositions for treatment of tinnitus” (New York University, priority 2019, dated 2022).

Test system: tinnitus
Assay: clinical use of intranasal oxytocin formulations to treat tinnitus
Format: in vivo, human
Description: In an aspect, this disclosure provides a method for treating tinnitus. The method comprises administering intranasally to an individual a composition comprising or consisting essentially of oxytocin, wherein such administration results in treatment of tinnitus. The effectiveness of treatment of tinnitus may be monitored by quantifying tinnitus, such as by self-evaluation using clinically accepted techniques. An example is the Tinnitus Handicap Inventory (“THI”), a validated and published measurement technique. (Newman et al., Arch Otolaryngol Head Neck Surg, 1996, February 122(2), 143-8). In an embodiment, the improvement in an individual using THI may comprise an improvement of at least 10%. In various embodiments, the improvement may comprise from 10-100%, such as at least 20, 30, 40, 50, 60, 70, 80, 90, 95, or 99%. This example describes clinical use of the present formulations to treat tinnitus. […] The formulation contained oxytocin, magnesium chloride, citric acid, and sodium citrate in sterile water. […] The dose was then increased to 45 IU (3 sprays of 15 IU) 4 times daily. […] A thickener was then added to the formulation keeping the oxytocin amount the same. […] Their score on the Tinnitus Handicap Inventory reduced from a pretreatment score of 96 (meaning a catastrophic level) to a current score of 14 (meaning mild or no tinnitus). The patient has remained improved over 1 year since initiating therapy. Their current dose is 22.5 IU in each nostril 4 times daily. Since their tinnitus occurs in distinct cycles, at times when tinnitus severity is loudest, they increase the dose to 5 times daily for 2 days. […] Their current handicap inventory is 8. […] The dose was increased to 45 IU 4 times daily resulting in a decrease in tinnitus volume by approximately 30%. In another patient, who developed constant tinnitus after a neck injury one year ago, a dose of 45 IU (22.5 IU in each nostril) 4 times daily was used for 30 days and is still ongoing. It has provided about 15% improvement. […] In another patient with constant tinnitus a dose of 30 IU 4 times daily has been started and treatment is ongoing.

[1] = patient with constant tinnitus, 30 IU 4 times daily, after 2 weeks
[2] = second patient, 45 IU twice daily

CC[C@H](C)[C@@H]1NC(=O)[C@H](Cc2ccc(O)cc2)NC(=O)[C@@H](N)CSSC[C@@H](C(=O)N2CCC[C@H]2C(=O)N[C@@H](CC(C)C)C(=O)NCC(N)=O)NC(=O)[C@H](CC(N)=O)NC(=O)[C@H](CCC(N)=O)NC1=O [oxytocin]
time remained improved since initiating therapy (first patient): over 1 year | current handicap inventory (first patient, 22.5 IU in each nostril 4 times daily, 5 times daily for 2 days when loudest): 8 | time without tinnitus (first patient, 22.5 IU in each nostril 4 times daily, 5 times daily for 2 days when loudest, past 3 months): ≤ 10 days | relief of tinnitus (first patient, 45 IU (3 sprays of 15 IU) 4 times daily, no thickener): significant relief | patient-reported benefit (first patient, 60 IU daily (30 IU twice daily), oxytocin, magnesium chloride, citric acid, sodium citrate in sterile water): partial benefit | score on the Tinnitus Handicap Inventory (first patient, formulation with thickener, pretreatment score 96 (catastrophic level)): 14 | relief of tinnitus (first patient, initial dose of less than 20 IU daily, intranasal): did not provide any relief | tinnitus free period (first patient, thickener added to the formulation, oxytocin amount the same (45 IU 4 times daily)): several days of tinnitus free period | relief of tinnitus (lower amounts of oxytocin (such as under 20 IU per day)): did not result in any significant relief | improvement (patient with constant tinnitus after neck injury, 45 IU (22.5 IU in each nostril) 4 times daily for 30 days): about 15% | tinnitus volume (patient with constant tinnitus after neck injury, dose raised to 5 times daily on occasions): diminished tinnitus volume | time without noticing the tinnitus [1]: several hours per day without noticing the tinnitus | tinnitus intensity [1]: tinnitus intensity has lowered | benefit (patient with drug-caused tinnitus, 30 IU twice daily): without benefit | decrease in tinnitus volume (patient with drug-caused tinnitus, 45 IU 4 times daily): approximately 30% | benefit [2]: significant benefit | reduction of tinnitus volume [2]: 45-60% | time remaining improved on dosing schedule [2]: more than a year | tinnitus free days [2]: some days in which they are tinnitus free
